Earlier results, collected in patent publication EP4119941A1, “HEMOGLOBIN ASSAY METHOD” (Sekisui Medical Co., Ltd., priority 2020, dated 2021).

Settings: at 25°C

pKa: 7.55
Structure (SMILES): O=S(=O)(O)CCNC(CO)(CO)CO [TES, N-tris(hydroxymethyl)methyl-2-aminoethanesulfonic acid]
